According to US20100168175A1, “ATPENINS” (priority 2008, published 2010):
Where two headings read alike, the source gives them in different places.

Legend:
[1] = test system: Alternaria solani; experiment: Alternaria test (tomato)/protective; type: in vivo; details: young tomato plants, protective spray, application rate 500 (in ppm g/ha [sic]), evaluation 7 days after inoculation; 0% = control, 100% = no infection
[2] = test system: Sphaerotheca fuliginea; experiment: Sphaerotheca test (cucumber)/protective; type: in vivo; details: Podosphaera fuliginea, 168 h, read-out: Efficacy in %
[3] = test system: Phytophthora infestans; experiment: whole plant or invertebrate; type: in vivo; details: in Solanum lycopersicum, 168 h, read-out: Efficacy in %
[4] = log P by HPLC on a reversed-phase column (C18), EEC Directive 79/831 Annex V.A8; type: physicochemical; details: reversed-phase HPLC column (Kromasil 100 C18), H3PO4
Procedure: The stated log P values were determined in accordance with EEC Directive 79/831 Annex V.A8 by HPLC (High Performance Liquid Chromatography) on a reversed-phase column (C18).
HP1100 LC System (UV/DAD); Kromasil 100 C18, 3.5 μm, 75×2.0 mm; mobile phase A: acetonitrile (0.1% formic acid); mobile phase B: water (0.09% formic acid); linear gradient from 10% acetonitrile to 95% acetonitrile over 8.5 min, then 95% acetonitrile for a further 3.5 min; oven temperature 43° C.; flow rate: 0.5 ml/min
HP1100 LC System (UV/DAD); Kromasil 100 C18, 3.5 μm, 70×3.1 mm; mobile phase A: acetonitrile (0.1% phosphoric acid); mobile phase B: water (0.1% phosphoric acid); linear gradient from 10% acetonitrile to 95% acetonitrile over 8.5 min, then 95% acetonitrile for a further 3 min; oven temperature 43° C.; flow rate: 1 ml/min

[5] = young cucumber plants, protective spray, application rate 100 g/ha, evaluation 7 days after inoculation, 0% = control, 100% = no infection

## C/C=C/CC(C)C(=O)c1c(O)c(OC)c(OC)[nH]c1=O (stereo not drawn) [Compound I-1, 4-Hydroxy-5,6-dimethoxy-3-[(4E)-2-methylhex-4-enoyl]pyridin-2(1H)-one]
[1]
  Efficacy in %: 0%
[2]
  pest or weed control at 100 g/ha: 77%
[3]
  pest or weed control at 500 ppm: 0%

## COc1ccc(Cn2c(OC)c(OC)c(O)c(C(=O)CCCCc3ccccc3)c2=O)cc1 [Compound I-28]
[3]
  pest or weed control at 500 ppm: 50%

## CCC(=O)c1c(O)c(OC)c(OC)n(Cc2ccc(OC)cc2)c1=O [Compound I-48, 4-Hydroxy-5,6-dimethoxy-1-(4-methoxybenzyl)-3-propanoylpyridin-2(1H)-one]
[1]
  Efficacy in %: 57%
[3]
  pest or weed control at 500 ppm: 63%

## COc1ccc(Cn2c(OC)c(OC)c(O)c(C(=O)c3ccc(C)cc3)c2=O)cc1 [Compound I-49]
[3]
  pest or weed control at 500 ppm: 50%

## COc1[nH]c(=O)c(C(=O)c2ccc(C)cc2)c(O)c1OC [Compound I-55]
[3]
  pest or weed control at 500 ppm: 56%

## COc1ccc(Cn2c(OC)c(OC)c(O)c(C(C)=O)c2=O)c(OC)c1 [Compound I-66]
[1]
  Efficacy in %: 94%

## COc1ccc(Cn2c(O)c(OC)c(O)c(C(=O)C3CCCC3)c2=O)c(OC)c1 [Compound I-69]
[3]
  pest or weed control at 500 ppm: 50%

## COc1[nH]c(=O)c(C(=O)CCc2ccccc2C)c(O)c1OC [Compound I-72]
[1]
  Efficacy in %: 50%

## CCC(CC)CC(C)C(=O)c1c(O)c(OC)c(OC)[nH]c1=O (stereo not drawn) [Compound I-74]
[2]
  pest or weed control at 100 g/ha: 100%

## COc1ccc(Cn2c(OC)c(OC)c(O)c(C(=O)Nc3ccc(-c4ccccc4)cc3)c2=O)cc1 [Compound I-75]
[1]
  Efficacy in %: 70%

## COc1ccc(Cn2c(OC)c(OC)c(O)c(C(=O)CCc3ccc(Oc4ccc(Cl)cc4)cc3)c2=O)cc1 [Compound I-89]
[4]
  chromatographic logP: 5.75
[3]
  pest or weed control at 500 ppm: 50%

## COc1ccc(Cn2c(O)c(OC)c(O)c(C(=O)C3CCC(C)CC3)c2=O)cc1 (stereo not drawn) [Compound I-101]
[3]
  pest or weed control at 500 ppm: 78%

## COc1ccc(Cn2c(OC)c(OC)c(O)c(C(=O)Cc3ccc(Br)cc3)c2=O)cc1 [Compound I-107]
[3]
  pest or weed control at 500 ppm: 78%

## COc1c(O)c(C(=O)C(C)C)c(=O)n(Cc2ccccc2)c1OC [Compound I-108]
[1]
  Efficacy in %: 67%

## COc1ccc(Cn2c(OC)c(OC)c(O)c(C(=O)C3CC=CCC3)c2=O)c(OC)c1 (stereo not drawn) [Compound I-110]
[3]
  pest or weed control at 500 ppm: 78%

## COc1ccc(Cn2c(O)c(OC)c(O)c(C(=O)C3CCCCCC3)c2=O)cc1 [Compound I-111]
[3]
  pest or weed control at 500 ppm: 89%

## COc1[nH]c(=O)c(C(=O)C2CCC(C)CC2)c(O)c1OC (stereo not drawn) [Compound I-121]
[1]
  Efficacy in %: 56%

## COc1[nH]c(=O)c(C(=O)c2ccc(Cl)cc2)c(O)c1OC [Compound I-122]
[3]
  pest or weed control at 500 ppm: 56%

## CCCC(C)C(=O)c1c(O)c(OC)c(OC)[nH]c1=O (stereo not drawn) [Compound I-129]
[2]
  pest or weed control at 100 g/ha: 98%
[3]
  pest or weed control at 500 ppm: 56%

## COc1[nH]c(=O)c(C(=O)C2CC2)c(O)c1OC [Compound I-130]
[3]
  pest or weed control at 500 ppm: 56%

## COc1[nH]c(=O)c(C(=O)C(C)CC(C)C)c(O)c1OC (stereo not drawn) [Compound I-138, 3-(2,4-Dimethylpentanoyl)-4-hydroxy-5,6-dimethoxypyridin-2(1H)-one]
[2]; [5]
  pest or weed control at 100 g/ha: 96%

## CCCC(C)c1ccccc1NC(=O)c1c(O)c(OC)c(OC)[nH]c1=O (stereo not drawn) [Compound I-139]
[3]
  pest or weed control at 500 ppm: 60%

## COc1[nH]c(=O)c(C(=O)C(C)Cc2ccc(C(F)(F)F)cc2)c(O)c1OC (stereo not drawn) [Compound I-141]
[1]
  Efficacy in %: 80%
[3]
  pest or weed control at 500 ppm: 70%

## COc1[nH]c(=O)c(C(=O)C(C)C2CCCCC2)c(O)c1OC (stereo not drawn) [Compound I-149]
[1]
  Efficacy in %: 80%

## COc1[nH]c(=O)c(C(=O)C(C)CCC(C)C)c(O)c1OC (stereo not drawn) [Compound I-153]
[1]
  Efficacy in %: 90%

## COc1ccc(Cn2c(OC)c(OC)c(O)c(C(=O)C(C)C/C=C\COCc3ccccc3)c2=O)cc1 (stereo not drawn) [Compound I-157]
[1]
  Efficacy in %: 50%

## COc1[nH]c(=O)c(C(=O)C(C)CCCc2ccccc2)c(O)c1OC (stereo not drawn) [Compound I-158]
[1]
  Efficacy in %: 50%
[3]
  pest or weed control at 500 ppm: 60%

## COc1[nH]c(=O)c(C(=O)C(C)CC(C)Cc2ccccc2)c(O)c1OC (stereo not drawn) [Compound I-160]
[1]
  Efficacy in %: 70%

## COc1[nH]c(=O)c(C(=O)C(C)CC2CCC(C(C)C)CC2)c(O)c1OC (stereo not drawn) [Compound I-164]
[1]
  Efficacy in %: 90%
[4]
  chromatographic logP: 5.41

## COc1ccc(Cn2c(OC)c(OC)c(O)c(C(=O)C(C)Cc3c(Cl)cccc3Cl)c2=O)cc1 (stereo not drawn) [Compound I-172, 3-[3-(2,6-Dichlorophenyl)-2-methylpropanoyl]-4-hydroxy-5,6-dimethoxy-1-(4-methoxybenzyl)pyridin-2(1H)-one]
[3]
  pest or weed control at 500 ppm: 71%

## CCCCCC(C)C(=O)c1c(O)c(OC)c(O)n(Cc2ccc(OC)cc2)c1=O (stereo not drawn) [Compound I-178, 4,6-Dihydroxy-5-methoxy-1-(4-methoxybenzyl)-3-(2-methylheptanoyl)pyridin-2(1H)-one]
[3]
  pest or weed control at 500 ppm: 60%

## COc1ccc(Cn2c(O)c(OC)c(O)c(C(=O)C(C)CC(F)(F)F)c2=O)cc1 (stereo not drawn) [Compound I-180]
[3]
  pest or weed control at 500 ppm: 50%

## CCCC1CCC(C(=O)c2c(O)c(OC)c(OC)n(Cc3ccc(OC)cc3)c2=O)CC1 (stereo not drawn) [Compound I-184]
[1]
  Efficacy in %: 56%

## COc1[nH]c(=O)c(C(=O)C(C)CC(F)(F)F)c(O)c1OC (stereo not drawn) [Compound I-197]
[2]; [5]
  pest or weed control at 100 g/ha: 100%

## COc1[nH]c(=O)c(C(=O)C(C)c2ccc(Cl)cc2)c(O)c1OC (stereo not drawn) [Compound I-204]
[2]; [5]
  pest or weed control at 100 g/ha: 85%

## CCCCCCC(CCCC)C(=O)c1c(O)c(OC)c(OC)[nH]c1=O (stereo not drawn) [Compound I-212]
[1]
  Efficacy in %: 71%

## CCC(C)CC(C)C(=O)c1c(O)c(OC)c(OC)[nH]c1=O (stereo not drawn) [Compound I-219]
[1]
  Efficacy in %: 50%

## COc1[nH]c(=O)c(C(=O)c2ccc3ccccc3c2)c(O)c1OC [Compound I-221]
[1]
  Efficacy in %: 93%
[3]
  pest or weed control at 500 ppm: 80%

## COc1[nH]c(=O)c(C(=O)C(C)CCC(C)(C)C)c(O)c1OC (stereo not drawn) [Compound I-228]
[1]
  Efficacy in %: 80%

## CCCCC(C)C(=O)c1c(O)c(OC)c(OC)[nH]c1=O (stereo not drawn) [Compound I-230]
[1]
  Efficacy in %: 70%
[2]
  pest or weed control at 100 g/ha: 98%

## COc1[nH]c(=O)c(C(=O)C(C)CCC2CCCC2)c(O)c1OC (stereo not drawn) [Compound I-240]
[2]; [5]
  pest or weed control at 100 g/ha: 98%
